# Source: article PMC8621101, “Inhibition of XPO-1 Mediated Nuclear Export through the Michael-Acceptor Character of Chalcones” (Pharmaceuticals, 2021)
# Assays:
# XPO1 = target: T1, XPO1 (Homo sapiens, UniProt O14980); assay: XPO1 phenotypic reporter assay in HeLa NLSSV40-AcGFP-NESPKI cells; assay type: cell-based; settings: HeLa GFP reporter cell line; for IC50: 2 h treatment, mean ± SEM of two independent experiments, read-out: XPO1 inhibition IC50
# T1 construct: the compounds were assayed in a reporter cell line based on the subcellular localization of a XPO1-dependent GFP reporter cargo protein; endogenous in cells; host or cells: HeLa cells stably transfected with the NLSSV40-AcGFP-NESPKI reporter (only the reporter cargo is transfected, not XPO1)
# T1 sequence (O14980 whole entry): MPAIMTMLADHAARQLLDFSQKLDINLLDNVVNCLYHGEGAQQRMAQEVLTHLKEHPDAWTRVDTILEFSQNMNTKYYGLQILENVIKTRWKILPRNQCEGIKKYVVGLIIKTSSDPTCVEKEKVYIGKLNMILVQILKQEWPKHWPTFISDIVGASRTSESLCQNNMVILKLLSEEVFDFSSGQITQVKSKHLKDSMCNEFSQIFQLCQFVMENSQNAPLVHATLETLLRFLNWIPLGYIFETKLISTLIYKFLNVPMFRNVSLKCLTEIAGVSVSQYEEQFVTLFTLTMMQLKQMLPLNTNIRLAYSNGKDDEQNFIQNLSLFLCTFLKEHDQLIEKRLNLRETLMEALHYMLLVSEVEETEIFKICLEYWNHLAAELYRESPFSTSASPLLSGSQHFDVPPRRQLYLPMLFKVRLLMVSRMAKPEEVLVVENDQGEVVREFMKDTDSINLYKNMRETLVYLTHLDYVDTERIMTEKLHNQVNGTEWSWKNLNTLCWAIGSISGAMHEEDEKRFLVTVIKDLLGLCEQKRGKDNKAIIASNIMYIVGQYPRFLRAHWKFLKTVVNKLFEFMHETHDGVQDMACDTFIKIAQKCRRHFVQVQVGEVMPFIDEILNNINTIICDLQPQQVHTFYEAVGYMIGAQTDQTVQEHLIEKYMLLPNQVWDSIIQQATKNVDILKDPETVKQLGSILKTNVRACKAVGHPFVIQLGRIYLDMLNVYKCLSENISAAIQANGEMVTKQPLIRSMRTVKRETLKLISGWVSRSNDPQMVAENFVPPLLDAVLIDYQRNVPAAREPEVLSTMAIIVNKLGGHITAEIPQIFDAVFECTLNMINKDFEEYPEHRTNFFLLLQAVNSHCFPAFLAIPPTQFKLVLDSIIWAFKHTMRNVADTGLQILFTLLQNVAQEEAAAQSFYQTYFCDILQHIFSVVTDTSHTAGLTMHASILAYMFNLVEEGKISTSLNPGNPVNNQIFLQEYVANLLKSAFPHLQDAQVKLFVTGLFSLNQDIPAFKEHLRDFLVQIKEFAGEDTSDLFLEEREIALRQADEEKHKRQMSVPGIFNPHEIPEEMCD
# Experimental: Stably transfected HeLa NLSSV40-AcGFP-NESPKI were cultured as described in Vercruysse et al.
# To study the XPO1-mediated nuclear export, stably transfected HeLa NLSSV40-AcGFP-NESPKI reporter cells were seeded at 8000 cells per well in 96-well all clear tissue culture plates (TPP). After overnight incubation, cells were treated with different doses of compound or solvent (DMSO) for 2 h and then fixed and counterstained with DAPI. Fluorescence was read on an ArrayScan XTI High Content Reader (Thermo Fisher Scientific, Waltham, MA, USA). Nuclear and cytoplasmic compartments were segmented and their average pixel intensities in the green channel were quantitated employing the HCS Studio software. Genedata Screener software was used for dose-response curve fitting, and calculation of EC50 values was based on the percentage of cells having a predominant nuclear localisation (ratio of nuclear to cytoplasmic signal equal or above 1.4) of the reporter construct. Compounds were tested in two independent experiments and represented as mean ± SEM.
# Hap-1 cells = assay: Cell proliferation assay (IncuCyte confluence), Hap-1; assay type: cell-based; settings: Homo sapiens, HAP1; Hap-1 chronic myeloid leukemia; 72 h; mean of two independent experiments ± SEM; read-out: IC50 antiproliferative activity Hap-1
# Experimental: (§1) Cancer cell lines HCT-116, NCI-H460, HL-60, K-562 and Z-138 were acquired from the American Type Culture Collection (ATCC, Manassas, VA, USA). The DND-41 cell line was purchased from the Deutsche Sammlung von Mikroorganismen und Zellkulturen (DSMZ Leibniz-Institut, Brunswick, Germany), and the HAP-1 cell line was ordered from Horizon Discovery (Horizon Discovery Group, Water Beach, UK). All cell lines were cultured as recommended by the suppliers. Culture media were purchased from Gibco Life Technologies and supplemented with 10% fetal bovine serum (HyClone, GE Healthcare Life Sciences, Chicago, Illinois, USA).
# (§2) Adherent cell lines HCT-116, NCI-H460 and Hap-1 cells were seeded at a density between 500 and 1500 cells per well in 384-well tissue culture plates (Greiner). After overnight incubation, cells were treated with different concentrations of the test compounds. Suspension cell lines HL-60, K-562, Z-138 and DND-41 were seeded at densities ranging from 2500 to 5500 cells per well in 384-well culture plates containing the test compounds at the same concentration points.
# HCT-116 cells = assay: Cell proliferation assay (IncuCyte confluence), HCT-116; assay type: cell-based; settings: Homo sapiens; HCT-116 colorectal carcinoma; 72 h; mean of two independent experiments ± SEM; read-out: IC50 antiproliferative activity HCT-116
# Experimental: as §1, §2
# NCI-H460 cells = assay: Cell proliferation assay (IncuCyte confluence), NCI-H460; assay type: cell-based; settings: Homo sapiens; NCI-H460 lung carcinoma; 72 h; mean of two independent experiments ± SEM; read-out: IC50 antiproliferative activity NCI-H460
# Experimental: as §1, §2
# DND-41 cells = assay: Cell proliferation assay (IncuCyte confluence), DND-41; assay type: cell-based; settings: DND41; DND-41 acute lymphoblastic leukemia; 72 h; mean of two independent experiments ± SEM; read-out: IC50 antiproliferative activity DND-41
# Experimental: as §1, §2
# HL-60 cells = assay: Cell proliferation assay (IncuCyte confluence), HL-60; assay type: cell-based; settings: Homo sapiens; HL-60 acute myeloid leukemia; 72 h; mean of two independent experiments ± SEM; read-out: IC50 antiproliferative activity HL-60
# Experimental: as §1, §2
# K-562 cells = assay: Cell proliferation assay (IncuCyte confluence), K-562; assay type: cell-based; settings: Homo sapiens, K562; K-562 chronic myeloid leukemia; 72 h; mean of two independent experiments ± SEM; read-out: IC50 antiproliferative activity K-562
# Experimental: as §1, §2
# Z-138 cells = assay: Cell proliferation assay (IncuCyte confluence), Z-138; assay type: cell-based; settings: Homo sapiens; Z-138 non-Hodgkin lymphoma; 72 h; mean of two independent experiments ± SEM; read-out: IC50 antiproliferative activity Z-138
# Experimental: as §1, §2
# [1] = GSH reactivity assay (HPLC, DTNB quench); assay type: physicochemical; settings: 500 µM compound, 5 mM GSH, 37 °C; for Reaction with GSH (hetero-Michael addition), qualitative: PBS pH 7.4 with EDTA:DMSO 1:1
# Experimental: In order to determine if these chalcones could react with thiol groups through a hetero-Michael addition reaction, a few selected compounds (9, 10, 13 and 18) were incubated with glutathione (GSH). After different incubation times, the reactions were quenched by adding 5,5′-dithiobis(2-nitrobenzoic acid) (DTNB, Ellman´s reagent) (1:1 ratio with respect to the initial concentration of GSH). The course of the reaction was followed by HPLC, adapting reported procedures. […] Thus, although this assay is only qualitative, the tendency observed among these chalcones nicely fits the reactivity described for α-X-2´3,4,4´-tetramethylchalcones.
# A 500 µM sample of the tested compound was incubated with 5 mM reduced L-glutathione for 24 h at 37 °C with a final volume of 200 μL. As a solvent system, 20 mM PBS buffer pH 7.4 with 2 mM EDTA:DMSO (1:1) was used. To perform the assay, stock solutions of 20 mM of the chalcones (9, 10, 13 and 18) and 15 mM of reduced L-glutathione were freshly prepared for every experiment and then diluted properly to give the final electrophile:nucleophile ratio (1:10). A 5 mM solution of 5,5′-dithiobis(2-nitrobenzoic acid) (DTNB) was prepared in the same solvent system to quench the reaction. After different time points (10 min, 1 h, 4 h and 24 h), an aliquot of 20 μL of the incubation mixture was quenched by adding 20 μL of the DTNB stock solution, mixed thoroughly, and then analyzed by HPLC. HPLC analysis was performed in Agilent 1120 compact LC, column ACE 5 C18-300 (15 cm × 4.6 mm); UV detection was performed at λ = 254 nm. Solvents used were acetonitrile for bottle A and H2O (containing 0.05% TFA) for bottle B, and the flow rate was 1mL/min. The gradients used were: (A) incubations with chalcone 9: from 10% to 80% of solvent A in 10 min; (B) incubations with chalcones 10 and 18: from 10% to 100% of solvent A in 10 min. The new peaks were analysed by LC-MS. As controls, a 500 μM solution of the α,β-unsaturated compound was also analysed, and a 5 mM reduced L-glutathione solution was quenched by adding DNTB at the same time points. In general, after 6 h of incubation, no GSH was detected.
# [2] = test system: panel of cancer cell lines; assay: Antiproliferative activity, panel of cancer cell lines; assay type: cell-based; settings: panel of cancer cell lines
# Experimental: as §2
SMILES,IC50 (XPO1) [µM],IC50 (HCT-116 cells) [µM],IC50 (NCI-H460 cells) [µM],IC50 (HL-60 cells) [µM],IC50 (K-562 cells) [µM],"XPO1 inhibition, in words (XPO1)","Reversibility of GSH adducts (retro-Michael), qualitative ([1]; longer incubation)",melting point [°C],IC50 (Hap-1 cells) [µM],IC50 (DND-41 cells) [µM],IC50 (Z-138 cells) [µM],"Reaction with GSH (hetero-Michael addition), qualitative [1]","Antiproliferative activity, in words [2]"
"NC(=O)C(=Cc1cncnc1)C(=O)c1ccc2ccccc2c1 [Compound 5, reference compound]",9.18 ± 3.28,,,,,,,,,,,,
"COC(=O)/C(=C/c1cncnc1)C(=O)c1ccc2ccccc2c1 [Compound 13, (E)-2-Methoxycarbonyl-1-(naphthalene-2-yl)-3-(pyrimidin-5-yl)prop-2-en-1-one]",> 100,≥ 15.5,≥ 47.1,> 100,> 100,inactive against XPO1,adducts reverted to the parent chalcone,161 to 163,≥ 54.9,≥ 30.6,> 100,provided the Michael adducts with GSH after a short reaction time,almost inactive
"NC(=O)/C(=C/c1cncnc1)C(=O)c1ccc2ccccc2c1 [Compound 15, (E)-2-Carbamoyl-1-(naphthalene-2-yl)-3-(pyrimidin-5-yl)prop-2-en-1-one]",~10,5.3 ± 3.1,2.6 ± 0.7,5.5 ± 3.6,2.1 ± 0.1,,,,2.1 ± 0.7,8.9 ± 0.9,5.1 ± 2.7,,slightly less active than the parent chalcone 9
"C/C(=C\c1cncnc1)C(=O)c1ccc2ccccc2c1 [Compound 18, (E)-2-Methyl-1-(naphthalen-2-yl)-3-(pyrimidin-5-yl)prop-2-en-1-one]",> 100,> 100,> 100,≥ 40.9,48.5 ± 2.4,inactive against XPO1,,,> 100,39.1 ± 5.3,> 100,remained almost unaltered even after 4 h of incubation,almost inactive

# Second part, led by results:
IC50 (XPO1) [µM],IC50 (HCT-116 cells) [µM],IC50 (NCI-H460 cells) [µM],IC50 (HL-60 cells) [µM],IC50 (K-562 cells) [µM],"XPO1 inhibition, in words (XPO1)","Reversibility of GSH adducts (retro-Michael), qualitative ([1]; longer incubation)",melting point [°C],SMILES,IC50 (Hap-1 cells) [µM],IC50 (DND-41 cells) [µM],IC50 (Z-138 cells) [µM],"Reaction with GSH (hetero-Michael addition), qualitative [1]","Antiproliferative activity, in words [2]"
1.27 ± 0.29,3.1 ± 0.9,4.3 ± 2.2,3.5 ± 2.1,2.2 ± 0.03,,,123 to 125,"O=C(/C=C/c1cccnc1)c1ccc2ccccc2c1 [Compound 24, (E)-1-(Naphthalen-2-yl)-3-(pyridin-3-yl)prop-2-en-1-one]",1.6 ± 0.1,1.8 ± 0.5,1.6 ± 0.1,,low µM range
7.28 ± 1.34,3.9 ± 1.5,51.6 ± 11.7,1.8 ± 0.05,4.8 ± 2.8,,,89 to 90,"O=C(/C=C/c1ccccn1)c1ccc2ccccc2c1 [Compound 25, (E)-1-(Naphthalen-2-yl)-3-(pyridin-2-yl)prop-2-en-1-one]",3.4 ± 0.5,2.6 ± 0.4,2.3 ± 0.5,,low µM range
10.7 ± 3.24,1.9 ± 0.4,7.7 ± 1.1,0.9 ± 0.2,4 ± 0.2,,,135 to 137,"O=C(/C=C/c1ccncc1)c1ccc2ccccc2c1 [Compound 26, (E)-1-(Naphthalen-2-yl)-3-(pyridin-4-yl)prop-2-en-1-one]",2.3 ± 0.3,1.9 ± 0.4,1.1 ± 0.4,,low µM range
87.3 ± 4.91,≥ 22.2,17.3 ± 4.6,23.4 ± 1.9,42.9 ± 0.1,almost inactive against XPO1,,81 to 82,"COC(=O)/C(=C\c1cncnc1)C(=O)c1cc(OC)cc(OC)c1 [Compound 30, (E)-2-Methoxycarbonyl-1-(3′,5′-dimethoxybenzoyl)-3-(pyrimidin-5′-yl)prop-2-en-1-one]",≥ 32,43.2 ± 6.4,47.6 ± 1.1,,considerably less active than the α-H chalcone 10
12.3 ± 1.28,34.2 ± 6.5,16.9 ± 4.5,10 ± 0.9,37.5 ± 0.9,active,,,"COCCOc1cc(OC)cc(C(=O)/C=C/c2cncnc2)c1 [Compound 33, (E)-1-(3′-Methoxy-5′-(2-methoxyethoxy)phenyl)-3-(pyrimidin-5′’-yl)prop-2-en-1-one]",4.3 ± 2.5,3.7 ± 1.6,1.5 ± 0.2,,
1.59 ± 0.36,52.9 ± 3.6,34.5 ± 5.2,40.2 ± 10.1,4.1 ± 1.9,active,,,"COc1cc(OCC=C(C)C)cc(C(=O)/C=C/c2cncnc2)c1 [Compound 34, (E)-1-(3′-Methoxy-5′-((3-methylbut-2-en-1-yl)oxy)phenyl)-3-(pyrimidin-5′’-yl)prop-2-en-1-one]",10 ± 2,10.1,4.6 ± 2.7,,
